In BindingDB's records for doi:10.1016/s0960-894x(01)00378-x (The R. W. Johnson Pharmaceutical Research Institute, 2001):

Assay: In vitro inhibition of human platelet aggregation induced by SFLLRN-NH2 (at a concentration of 2 uM)

Point of comparison: `NCC(NC(=O)[C@H](Cc1ccc(F)c(F)c1)NC(=O)Nc1ccc2c(CN3CCCC3)cn(Cc3c(Cl)cccc3Cl)c2c1)C(=O)NCc1ccccc1` (stereo partly drawn) [(S)-N-(2-Amino-1-benzylcarbamoyl-ethyl)-2-{3-[1-(2,6-dichloro-benzyl)-3-pyrrolidin-1-ylmethyl-1H-indol-6-yl]-ureido}-3-(3,4-difluoro-phenyl)-propionamide], IC50 500 nM. Against it:
- NC(=O)NCCCC(NC(=O)[C@H](Cc1ccc(F)c(F)c1)NC(=O)Nc1ccc2c(CN3CCCC3)cn(Cc3c(Cl)cccc3Cl)c2c1)C(=O)NCc1ccccc1 (stereo partly drawn) [2-[(S)-2-{3-[1-(2,6-Dichloro-benzyl)-3-pyrrolidin-1-ylmethyl-1H-indol-6-yl]-ureido}-3-(3,4-difluoro-phenyl)-propionylamino]-5-ureido-pentanoic acid benzylamide] — 1.7-fold lower, 300 nM
- NC(=O)CCC(NC(=O)[C@H](Cc1ccc(F)c(F)c1)NC(=O)Nc1ccc2c(CN3CCCC3)cn(Cc3c(Cl)cccc3Cl)c2c1)C(=O)NCc1ccccc1 (stereo partly drawn) [2-[(S)-2-{3-[1-(2,6-Dichloro-benzyl)-3-pyrrolidin-1-ylmethyl-1H-indol-6-yl]-ureido}-3-(3,4-difluoro-phenyl)-propionylamino]-pentanedioic acid 5-amide 1-benzylamide] — 4-fold higher, 2000 nM
- N#Cc1ccc(C[C@H](NC(=O)Nc2ccc3c(CN4CCCC4)cn(Cc4c(Cl)cccc4Cl)c3c2)C(=O)N[C@@H](CCCNC(=N)N)C(=O)NCc2ccccc2)cc1 [(S)-2-((S)-3-(4-Cyano-phenyl)-2-{3-[1-(2,6-dichloro-benzyl)-3-pyrrolidin-1-ylmethyl-1H-indol-6-yl]-ureido}-propionylamino)-5-guanidino-pentanoic acid benzylamide] — 7.1-fold lower, 70 nM
- COc1ccc(C[C@H](NC(=O)Nc2ccc3c(CN4CCCCC4)cn(Cc4ccc(F)cc4)c3c2)C(=O)N[C@@H](CCCNC(=N)N)C(=O)NCC2CCCCC2)cc1 [(S)-2-[(S)-2-{3-[1-(4-Fluoro-benzyl)-3-piperidin-1-ylmethyl-1H-indol-6-yl]-ureido}-3-(4-methoxy-phenyl)-propionylamino]-5-guanidino-pentanoic acid cyclohexylmethyl-amide] — 2-fold higher, 1000 nM
- COc1ccc(C[C@H](NC(=O)Nc2ccc3c(CN4CCC4)cn(Cc4ccc(F)cc4)c3c2)C(=O)N[C@@H](CCCNC(=N)N)C(=O)NCc2ccccc2)cc1 [(S)-2-[(S)-2-{3-[3-Azetidin-1-ylmethyl-1-(4-fluoro-benzyl)-1H-indol-6-yl]-ureido}-3-(4-methoxy-phenyl)-propionylamino]-5-guanidino-pentanoic acid benzylamide] — within 1.5-fold, 400 nM
- NCCC[C@H](NC(=O)[C@H](Cc1ccc(F)c(F)c1)NC(=O)Nc1ccc2c(CN3CCCC3)cn(Cc3c(Cl)cccc3Cl)c2c1)C(=O)NCc1ccccc1 [(S)-5-Amino-2-[(S)-2-{3-[1-(2,6-dichloro-benzyl)-3-pyrrolidin-1-ylmethyl-1H-indol-6-yl]-ureido}-3-(3,4-difluoro-phenyl)-propionylamino]-pentanoic acid benzylamide] — 5-fold lower, 100 nM
- COc1ccc(C[C@H](NC(=O)Nc2ccc3c(CN4CCCC4)cn(Cc4ccccc4C)c3c2)C(=O)N[C@@H](CCCNC(=N)N)C(=O)NCCCc2ccccc2)cc1 [(S)-5-Guanidino-2-((S)-3-(4-methoxy-phenyl)-2-{3-[1-(2-methyl-benzyl)-3-pyrrolidin-1-ylmethyl-1H-indol-6-yl]-ureido}-propionylamino)-pentanoic acid (3-phenyl-propyl)-amide] — 2.5-fold lower, 200 nM
- COc1ccc(C[C@H](NC(=O)Nc2ccc3c(CN4CCCC4)cn(Cc4ccc(OC(F)(F)F)cc4)c3c2)C(=O)N[C@@H](CCCNC(=N)N)C(=O)NCC2CCCCC2)cc1 [(S)-5-Guanidino-2-((S)-3-(4-methoxy-phenyl)-2-{3-[3-pyrrolidin-1-ylmethyl-1-(4-trifluoromethoxy-benzyl)-1H-indol-6-yl]-ureido}-propionylamino)-pentanoic acid cyclohexylmethyl-amide] — 9.6-fold higher, 4800 nM
